Source: patent US9840513B2 (AbbVie S.à.r.l., priority 2015, dated 2017)

Molecular target: T1, F508delCFTR cell surface expression in CFBE41o-F508delCFTR-HRP cells (Homo sapiens, UniProt P13569, DEL508-508)
T1 construct: fused on or other part: Horseradish peroxidase (HRP) reporter inserted in the fourth exofacial (extracellular) loop of CFTR; expression is doxycycline-inducible
Assay: Cell Surface Expression-Horse Radish Peroxidase (CSE-HRP) Assay
Format: cell-based
Conditions: for EC50: CFBE41o-F508delCFTR-HRP cells, 18-24 hours at 33° C., 8-point curve, highest concentration 20 μM; for Maximum % activity (%): maximum at any tested concentration, normalized to on-plate positive control (3 μM)
How it was run: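 Correctors incubated 18-24 h at 33 °C on doxycycline-induced (0.5 μg/mL, 72 h) CFBE41o-F508delCFTR-HRP cells, 3-fold series from 20 μM. After DPBS washes, luminol luminescence read; activity expressed relative to DMSO and a 3 μM positive control, EC50 fitted from triplicate plates.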

T1 sequence (P13569 with tags, fused parts or gaps DEL508-508 limits assumed): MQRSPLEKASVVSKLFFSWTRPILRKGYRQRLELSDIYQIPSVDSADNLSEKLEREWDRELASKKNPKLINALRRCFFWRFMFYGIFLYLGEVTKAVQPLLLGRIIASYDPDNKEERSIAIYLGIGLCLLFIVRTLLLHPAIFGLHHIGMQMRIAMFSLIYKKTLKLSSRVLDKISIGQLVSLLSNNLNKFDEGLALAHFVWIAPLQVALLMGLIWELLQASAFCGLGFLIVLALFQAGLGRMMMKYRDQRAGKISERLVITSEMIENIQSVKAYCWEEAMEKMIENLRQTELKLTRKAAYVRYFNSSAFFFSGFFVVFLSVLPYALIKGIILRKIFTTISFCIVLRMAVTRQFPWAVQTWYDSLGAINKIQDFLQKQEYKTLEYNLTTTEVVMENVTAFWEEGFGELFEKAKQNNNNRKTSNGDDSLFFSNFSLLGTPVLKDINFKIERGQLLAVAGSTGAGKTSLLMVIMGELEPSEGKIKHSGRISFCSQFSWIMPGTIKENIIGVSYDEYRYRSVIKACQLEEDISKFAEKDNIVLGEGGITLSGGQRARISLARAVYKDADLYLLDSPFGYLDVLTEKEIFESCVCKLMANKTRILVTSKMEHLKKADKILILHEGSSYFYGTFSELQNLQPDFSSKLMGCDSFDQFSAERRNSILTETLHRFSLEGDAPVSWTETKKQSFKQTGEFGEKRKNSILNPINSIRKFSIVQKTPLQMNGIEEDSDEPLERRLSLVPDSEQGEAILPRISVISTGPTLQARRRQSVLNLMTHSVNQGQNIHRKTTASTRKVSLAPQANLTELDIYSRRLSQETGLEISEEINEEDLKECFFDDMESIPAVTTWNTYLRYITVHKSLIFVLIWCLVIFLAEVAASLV
T1 sequence (P13569 919-1480 limits assumed, stated change not applied): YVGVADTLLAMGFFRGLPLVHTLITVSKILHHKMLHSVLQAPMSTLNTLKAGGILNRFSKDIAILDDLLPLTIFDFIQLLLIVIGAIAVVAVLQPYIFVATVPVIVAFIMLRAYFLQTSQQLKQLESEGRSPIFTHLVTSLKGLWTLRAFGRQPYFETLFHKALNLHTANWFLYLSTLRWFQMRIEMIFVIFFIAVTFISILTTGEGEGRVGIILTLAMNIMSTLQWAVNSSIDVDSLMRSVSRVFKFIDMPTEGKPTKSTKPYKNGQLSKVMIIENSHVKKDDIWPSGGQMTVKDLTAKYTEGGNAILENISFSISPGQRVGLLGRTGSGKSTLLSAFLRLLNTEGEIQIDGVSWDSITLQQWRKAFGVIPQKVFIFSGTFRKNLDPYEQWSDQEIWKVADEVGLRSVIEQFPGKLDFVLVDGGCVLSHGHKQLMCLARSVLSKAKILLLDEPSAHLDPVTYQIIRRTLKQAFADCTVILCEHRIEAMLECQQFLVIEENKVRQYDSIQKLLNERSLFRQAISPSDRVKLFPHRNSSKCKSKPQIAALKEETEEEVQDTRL

| EC50 [nM] | Maximum % activity (%) | Structure (SMILES) |
| --- | --- | --- |
| 6690 | 90 | C[C@]1(C(=O)Nc2cccc(F)n2)COc2cc3c(cc21)OC(F)(F)O3 [Example 85, (7R)-2,2-difluoro-N-(6-fluoropyridin-2-yl)-7-methyl-6,7-dihydro-2H-furo[2,3-f][1,3]benzodioxole-7-carboxamide] |
| 120 | 92 | COc1ccc2c(c1)O[C@@H](c1ccc(OCc3ccccc3)nn1)C[C@H]2NC(=O)[C@@]1(C)COc2cc3c(cc21)OC(F)(F)O3 (single isomer, unassigned) [Example 273] |
| 90 | 132 | COc1ccc2c(c1)O[C@@H](c1cnc(CO)cn1)C[C@H]2NC(=O)[C@@]1(C)COc2cc3c(cc21)OC(F)(F)O3 [Example 173, (7R)-2,2-difluoro-N-{(2R,4R)-2-[5-(hydroxymethyl)pyrazin-2-yl]-7-methoxy-3,4-dihydro-2H-1-benzopyran-4-yl}-7-methyl-6,7-dihydro-2H-furo[2,3-f][1,3]benzodioxole-7-carboxamide] |
| 120 | 104 | COc1ccc2c(c1)O[C@@H](c1ccc(C(=O)NC3CCS(=O)(=O)CC3)cn1)C[C@H]2NC(=O)[C@@]1(C)COc2cc3c(cc21)OC(F)(F)O3 [Example 217, 6-[(2R,4R)-4-{[(7R)-2,2-difluoro-7-methyl-6,7-dihydro-2H-furo[2,3-f][1,3]benzodioxole-7-carbonyl]amino}-7-methoxy-3,4-dihydro-2H-1-benzopyran-2-yl]-N-(1,1-dioxo-1lambda^6-thian-4-yl)pyridine-3-carboxamide] |
| 670 | 117 | COc1ccc2c(c1)O[C@@H]([C@H]1CC[C@H](C(=O)O)CC1)C[C@H]2NC(=O)[C@@]1(C)COc2c1cc1c(c2I)OC(F)(F)O1 [Example 291, trans-4-[(2R,4R)-4-{[(7R)-2,2-difluoro-4-iodo-7-methyl-6,7-dihydro-2H-furo[2,3-f][1,3]benzodioxole-7-carbonyl]amino}-7-methoxy-3,4-dihydro-2H-1-benzopyran-2-yl]cyclohexane-1-carboxylic acid] |
| > 20000 | 1 | CC1(C(=O)Nc2cccc(C(=O)NC[C@@H](O)CO)n2)COc2cc3c(cc21)OC(F)(F)O3 (stereo partly drawn) [Example 65, 6-[(2,2-difluoro-7-methyl-6,7-dihydro-2H-furo[2,3-f][1,3]benzodioxole-7-carbonyl)amino]-N-[(2R)-2,3-dihydroxypropyl]pyridine-2-carboxamide] |
| 50 | 112 | COc1ccc2c(c1)O[C@@H](c1ccc(C(=O)N3CCN(S(N)(=O)=O)CC3)cn1)C[C@H]2NC(=O)[C@@]1(C)COc2cc3c(cc21)OC(F)(F)O3 [Example 233, (7R)-2,2-difluoro-N-{(2R,4R)-7-methoxy-2-[5-(4-sulfamoylpiperazine-1-carbonyl)pyridin-2-yl]-3,4-dihydro-2H-1-benzopyran-4-yl}-7-methyl-6,7-dihydro-2H-furo[2,3-f][1,3]benzodioxole-7-carboxamide] |
| 6450 | 151 | CC1(C(=O)Nc2cccc(-c3ccccc3)c2)COc2cc3c(cc21)OC(F)(F)O3 (stereo not drawn) [Example 54, N-([1,1′-biphenyl]-3-yl)-2,2-difluoro-7-methyl-6,7-dihydro-2H-furo[2,3-f][1,3]benzodioxole-7-carboxamide] |
| > 20000 | 12 | Cc1c(C(=O)O)ncn1-c1ccc(C(F)(F)F)cc1NC(=O)C1(C)COc2cc3c(cc21)OC(F)(F)O3 (stereo not drawn) [Example 62, 1-{2-[(2,2-difluoro-7-methyl-6,7-dihydro-2H-furo[2,3-f][1,3]benzodioxole-7-carbonyl)amino]-4-(trifluoromethyl)phenyl}-5-methyl-1H-imidazole-4-carboxylic acid] |
| 60 | 143 | CC(C)OC(=O)[C@H]1CC[C@H]([C@H]2C[C@@H](NC(=O)[C@@]3(C)COc4cc5c(cc43)OC(F)(F)O5)c3ccc(OC(F)(F)F)cc3O2)CC1 [Example 194, propan-2-yl trans-4-[(2R,4R)-4-{[(7R)-2,2-difluoro-7-methyl-6,7-dihydro-2H-furo[2,3-f][1,3]benzodioxole-7-carbonyl]amino}-7-(trifluoromethoxy)-3,4-dihydro-2H-1-benzopyran-2-yl]cyclohexane-1-carboxylate] |
| 300 | 132 | CC(C)(C)c1cc2cc(NC(=O)[C@@]3(C)COc4cc5c(cc43)OC(F)(F)O5)c(F)cc2n1C[C@@H](O)CO [Example 133, (7R)—N-{2-tert-butyl-1-[(2R)-2,3-dihydroxypropyl]-6-fluoro-1H-indol-5-yl}-2,2-difluoro-7-methyl-6,7-dihydro-2H-furo[2,3-f][1,3]benzodioxole-7-carboxamide] |
| 90 | 184 | C[C@]1(C(=O)N[C@@H]2C[C@H]([C@H]3CC[C@H](C(=O)Nc4ccccc4O)CC3)Oc3cc(OC(F)(F)F)ccc32)COc2cc3c(cc21)OC(F)(F)O3 [Example 262, (7R)-2,2-difluoro-N-[(2R,4R)-2-{trans-4-[(2-hydroxyphenyl)carbamoyl]cyclohexyl}-7-(trifluoromethoxy)-3,4-dihydro-2H-1-benzopyran-4-yl]-7-methyl-6,7-dihydro-2H-furo[2,3-f][1,3]benzodioxole-7-carboxamide] |
| 5750 | 91 | COc1ccc2c(c1)O[C@@H](c1ccc(C(=O)O)cc1)C[C@H]2NC(=O)[C@]1(C)COc2cc3c(cc21)OC(F)(F)O3 [Example 18, 4-[(2R,4R)-4-{[(7S)-2,2-difluoro-7-methyl-6,7-dihydro-2H-furo[2,3-f][1,3]benzodioxole-7-carbonyl]amino}-7-methoxy-3,4-dihydro-2H-1-benzopyran-2-yl]benzoic acid] |
| > 20000 | 20 | C[C@]1(C(=O)N[C@H]2C[C@@H](C3CCN(C[C@H](O)CO)CC3)Oc3cc(OC(F)(F)F)ccc32)COc2cc3c(cc21)OC(F)(F)O3 [Example 188, (7R)—N-[(2S,4S)-2-{1-[(2S)-2,3-dihydroxypropyl]piperidin-4-yl}-7-(trifluoromethoxy)-3,4-dihydro-2H-1-benzopyran-4-yl]-2,2-difluoro-7-methyl-6,7-dihydro-2H-furo[2,3-f][1,3]benzodioxole-7-carboxamide] |
| 30 | 105 | COc1ccc2c(c1)O[C@@H](c1ccc(C(=O)N3CCCOCC3)cn1)C[C@H]2NC(=O)[C@@]1(C)COc2cc3c(cc21)OC(F)(F)O3 [Example 219, (7R)-2,2-difluoro-N-{(2R,4R)-7-methoxy-2-[5-(1,4-oxazepane-4-carbonyl)pyridin-2-yl]-3,4-dihydro-2H-1-benzopyran-4-yl}-7-methyl-6,7-dihydro-2H-furo[2,3-f][1,3]benzodioxole-7-carboxamide] |
| 106 | 122 | CCOC(=O)C1([C@H]2C[C@@H](NC(=O)[C@@]3(C)COc4cc5c(cc43)OC(F)(F)O5)c3ccc(OC(F)(F)F)cc3O2)CC1 [Example 164, ethyl 1-[(2R,4R)-4-{[(7R)-2,2-difluoro-7-methyl-6,7-dihydro-2H-furo[2,3-f][1,3]benzodioxole-7-carbonyl]amino}-7-(trifluoromethoxy)-3,4-dihydro-2H-1-benzopyran-2-yl]cyclopropane-1-carboxylate] |
| 740 | 124 | Cc1ccc(NC(=O)[C@@]2(C)COc3cc4c(cc32)OC(F)(F)O4)nc1-c1cccc(S(=O)(=O)NC2CC2)c1 [Example 124, (7R)—N-{6-[3-(cyclopropylsulfamoyl)phenyl]-5-methylpyridin-2-yl}-2,2-difluoro-7-methyl-6,7-dihydro-2H-furo[2,3-f][1,3]benzodioxole-7-carboxamide] |
| 14100 | 18 | CC1(C)OC[C@H]([C@H](O)Cn2nc(-c3ccccc3)cc(NC(=O)[C@@]3(C)COc4cc5c(cc43)OC(F)(F)O5)c2=O)O1 [Example 106, (7R)—N-(2-{(2R)-2-[(4R)-2,2-dimethyl-1,3-dioxolan-4-yl]-2-hydroxyethyl}-3-oxo-6-phenyl-2,3-dihydropyridazin-4-yl)-2,2-difluoro-7-methyl-6,7-dihydro-2H-furo[2,3-f][1,3]benzodioxole-7-carboxamide] |
| 2030 | 186 | C[C@]1(C(=O)N[C@@H]2C[C@H](C3CCN(C[C@H](O)CO)CC3)Oc3cc(OC(F)(F)F)ccc32)COc2cc3c(cc21)OC(F)(F)O3 [Example 189, (7R)—N-[(2R,4R)-2-{1-[(2S)-2,3-dihydroxypropyl]piperidin-4-yl}-7-(trifluoromethoxy)-3,4-dihydro-2H-1-benzopyran-4-yl]-2,2-difluoro-7-methyl-6,7-dihydro-2H-furo[2,3-f][1,3]benzodioxole-7-carboxamide] |
| > 20000 | 16 | CC1(C)OC[C@H]([C@@H](O)Cn2nc(-c3ccccc3)cc(NC(=O)[C@@]3(C)COc4cc5c(cc43)OC(F)(F)O5)c2=O)O1 [Example 104, (7R)—N-(2-{(2S)-2-[(4R)-2,2-dimethyl-1,3-dioxolan-4-yl]-2-hydroxyethyl}-3-oxo-6-phenyl-2,3-dihydropyridazin-4-yl)-2,2-difluoro-7-methyl-6,7-dihydro-2H-furo[2,3-f][1,3]benzodioxole-7-carboxamide] |
| 20 | 124 | COc1ccc2c(c1)O[C@@H](c1ccc(C(C)=O)cn1)C[C@H]2NC(=O)[C@@]1(C)COc2cc3c(cc21)OC(F)(F)O3 [Example 180, (7R)—N-[(2R,4R)-2-(5-acetylpyridin-2-yl)-7-methoxy-3,4-dihydro-2H-1-benzopyran-4-yl]-2,2-difluoro-7-methyl-6,7-dihydro-2H-furo[2,3-f][1,3]benzodioxole-7-carboxamide] |
